Results: patent EP1029854A1, “Oxazolidinones and their use as antibacterial agents” (BAYER AG, priority 1999, dated 2000)
In brackets after ≈: the same amount, converted by molar mass.

Test system: S.aureus 133
Assay: MIC (MHK) determination by microdilution method in BH medium
Assay type: cell-based
Conditions: for Wirksameres Diastereomer: qualitative comparison with Diastereomer 2 of the same example, test not named in the heading, presumably the MIC test; for MIC: Staphylococcus aureus, S.aureus 133, microdilution in BH-Medium, 37°C, read after ca. 20 hours or 3 to 5 days, lowest concentration with no visible growth, samples Diastereomer 1 /Diastereomer 2 = 100:1, read-out: MHK-Werte
Experimental: Die MHK-Werte wurden mit Hilfe der Mikrodilutionsmethode in BH-Medium bestimmt. Jede Prüfsubstanz wurde in DMSO gelöst. In der Mikrotiterplatte wurde durch serielle Verdünnung eine Konzentrationsreihe der Prüfsubstanzen angelegt. Zur Inokulation wurden Übernachtkulturen der Erreger verwandt, die zuvor im Nährmedium 1:250 verdünnt wurden. Zu 100 µl der verdünnten, wirkstoffhaltigen Nährlösungen wurden je 100 µl Inokulationslösung gegeben.
Die Mikrotiterplatten wurden bei 37°C bebrütet und nach ca. 20 Stunden oder nach 3 bis 5 Tagen abgelesen. Der MHK-Wert (µg/ml) gibt die niedrigste Wirkstoffkonzentration an, bei der kein Wachstum zu erkennen war.

MIC | Structure (SMILES) | Wirksameres Diastereomer
 | C=CC(O)[C@H]1CN(c2ccc3c(c2)OCc2nccn2-3)C(=O)O1 (single isomer, unassigned) [Beispiel 1 Diastereomer 1] | Wirksameres Diastereomer
1.5 µg/mL (≈ 4.79 µM) | C=CC(O)[C@H]1CN(c2ccc3c(c2)OCc2nccn2-3)C(=O)O1 (single isomer, unassigned) [Beispiel 1] | 
 | C#CC(O)[C@H]1CN(c2ccc3c(c2)OCc2nccn2-3)C(=O)O1 (single isomer, unassigned) [Beispiel 2 Diastereomer 1] | Wirksameres Diastereomer
1 µg/mL (≈ 3.21 µM) | C#CC(O)[C@H]1CN(c2ccc3c(c2)OCc2nccn2-3)C(=O)O1 (single isomer, unassigned) [Beispiel 2] | 
